Test results taken from patent publication US7589080B2, “β-cyclodextrin compositions, and use to prevent transmission of sexually transmitted diseases” (priority 2000, dated 2009).
Marks after values point to notes of the source that are not given here.

Key:
HIV-1Ba-L-infected HuPBL = assay: Vaginal transmission of cell-associated HIV-1 in HuPBL-SCID mice; format: in vivo; conditions: for Number of mice from which HIV-1 was cultured/Number of mice exposed to HIV-1: P < 0.01
Procedure: The mice were treated subcutaneously with 2.5 mg progestin (Depo-Provera® progestin; Upjohn Pharmaceuticals; Kalamazoo Mich.), on the same day as administration of 5×10^7 unstimulated HuPBMC intraperitoneally in 1 ml PBS. Seven days following progestin treatment and reconstitution of the SCID mice with HuPBMC, the mice were anesthetized and administered pelleted, cell-free HIV-1Ba-L (up to […]), supernatant fluids from HIV-1Ba-L-infected HuPBL, HIV-1Ba-L-infected HuPBL, or HIV-1MN-infected HuPBL (1×10^6/mouse). In the βCD experiments, the mice received 2-OH-βCD (3% w/v in PBS) 5 min prior to receiving 1×10^6 HIV-1Ba-L-infected HuPBL, 1×10^6 HIV-1Ba-L-infected HuPBL pre-incubated with 3% 2-OH-βCD, or 1×10^6 HIV-1Ba-L-infected HuPBL suspended in PBS.
Mice remained anesthetized for 5 minutes following intravaginal inoculation by pipette. Extreme care was taken to avoid causing trauma to vaginal tissues. Two weeks later the mice were euthanized and peritoneal cells were recovered by lavage with cold PBS. The cells recovered by lavage (of both murine and human origin) were assayed by DNA-PCR for human β-globin to determine the presence of human cells from the peritoneum and for HIV-1 infection by co-culture with PHA-stimulated HuPBMC.
The ability of a βCD to inhibit vaginal transmission of cell-associated HIV-1 was examined. Reconstituted HuPBL-SCID mice were challenged intravaginally with 1×10^6 PBMC infected with HIVBa-L after receiving progesterone subcutaneously and HuPBMC intraperitoneally. For two of the experimental groups the HIV-1 infected PBMC were pre-incubated in either 20 Tl PBS or 2-OH-βCD (3% w/v) before the mixture was inoculated intravaginally.

HIV-infected H9 cells = assay: Syncytium assay with HIV-1 infected cells; format: cell-based; conditions: for Syncytia (/HPF): with HIV-infected H9 cells
Procedure: Syncytium assays were carried out essentially as previously described (Hildreth and Orentas, supra, 1989). Briefly, cell lines or PHA blasts were treated with 20 mM 2-OH-βCD in RPMI 1640 or medium alone for 1 hr at 37° C. before washing twice with PBS. The treated cells were then mixed with HIV-1 infected cells, each at density of 2×10^6/ml, in cRPMI and incubated at 37° C. Syncytia were scored and photographed 3 to 6 hr after mixing. For free-virus mediated syncytium assays (“fusion from without”), HIV-1RF from infected PM1 culture supernatants were clarified by 0.45 Tm filtration (p24 concentration greater than 500 ng/ml). 2-OH-βCD-treated and non-treated cell lines were added to the virus preparations and incubated at 37° C. for 3 hr before counting syncytia.
CD4+SupTl T cells formed numerous large syncytia within 3 hr after the addition of HIV-1MN-infected H9 cells. […] No syncytia were apparent in this culture for more than 15 hr, which can reflect the recovery time for cholesterol in the βCD treated T cells. 2-OH-βCD was washed out after the 1 hr treatment and was not present during the co-cultivation step. As such, the effects are not a result of a steric blockade by 2-OH-βCD, which can bind to cells.
The effect of βCD treatment on HIV-induced fusion of several other cell lines also was examined. Four CD4+, CXCR4+cell lines, SupT1, H9, PM1, and MT2, were treated with 2-OH-βCD and tested for syncytium formation with HIV-1-infected cells.

CCR5 = assay: Flow cytometry of CCR5 expression on primary T cells; format: cell-based; conditions: primary T cells after treatment (19% before)
Procedure: Flow cytometry was performed as previously described (Orentas and Hildreth, supra, 1993). Briefly, 2×10^5 2-OH-βCD treated or untreated cells in 100 μl PBS containing 5% normal goat serum (NGS) were added to 100 μl of MAb (1-5 μg) and incubated 30 min on ice. In comparative experiments we prefixed the cells with 2% paraformaldehyde in PBS immediately after 2-OH-βCD treatment. Cells were washed with PBS, resuspended in 100 μl of PBS, 5% NGS containing 2 Tg of FITC conjugated-goat anti-mouse IgG (FITC-GAM) and incubated 1 h on ice. Cells were then washed with PBS and fixed with 2% paraformaldehyde followed by analysis on an EPICS Profile II flow cytometer.
Cholesterol depletion also promoted CXCR4 down-modulation by MAb-induced internalization. A possible explanation for the inhibition of syncytium formation by cholesterol depletion as described above is that CD4, CRs, or both are lost from the cell surface, for example, by extrusion from the membrane in vesicles after loss of cholesterol, or they could be internalized. To explore these possibilities, βCD treated cells were examined for expression of HIV receptors by flow cytometry. […] In contrast, cell surface expression of CXCR4 was reduced by 50% or more in all of the cells after 2-OH-βCD treatment (Table 1).

[1] = system: HIV-1RF chronically infected Jurkat cells; assay: Virus precipitation with MAbs after β-cyclodextrin treatment of infected cells; format: cell-based
Procedure: Infected Jurkat cells (3×10^6) were treated with 20 mM hydroxypropyl-β-cyclodextrin (2-OH-βCD; Cyclodextrin Technologies Development, Inc.; Gainesville Fla.) in 3 ml of cRPMI or with cRPMI alone for 1 hr at 37° C. Cells were washed with PBS, then allowed to produce virus in 3 ml of cRPMI at 37° C. for 2 hr. Viral supernatants were clarified through a 0.45 Tm filter, and […] of MAb (10 mg/ml) in 5% NGS-PBS, and the mixture was incubated for 1 hr on ice. Pansorbin (SaC) (50 mg; Calbiochem; San Diego Calif.) was added to the solution and incubated for 20 min on ice. Complexes were washed sequentially with 10X and 1X PBS. Precipitated virus was lysed with […] of 1% Triton X-100 in cRPMI. Lysates were diluted, and p24 was quantitated by standard p24 ELISA.
The effects of 2-OH-βCD, a cellular cholesterol efflux inducing molecule, on the incorporation of host molecules into virions also was examined. By removing cholesterol, 2-OH-βCD is believed to partially perturb organized lipid rafts, resulting in dispersal of their components (Ilangumaran and Hoessli, Biochem. J. 335:433-440, 1998).

[2] = infected Jurkat cells treated with 20 mM for 1 hr at 37° C, P<0.05

## 2-hydroxypropyl-β-cyclodextrin [2-OH-βCD]
HIV-1Ba-L-infected HuPBL; 3% w/v intravaginally 5 min prior to infected HuPBMC challenge
  Number of mice from which HIV-1 was cultured/Number of mice exposed to HIV-1: 1/11*
HIV-1Ba-L-infected HuPBL; 3% w/v premixed with HIV-infected HuPBMC, intravaginal
  Number of mice from which HIV-1 was cultured/Number of mice exposed to HIV-1: 2/16*
HIV-1Ba-L-infected HuPBL; 3% w/v, even when administered prior to infected PBMC
  Cell-associated HIV-1 transmission by the vaginal route: significantly inhibited
HIV-infected H9 cells; 1 hr treatment, washed out before co-cultivation
  Syncytium formation of SupT1 cells with HIV-1MN-infected H9 cells: completely inhibited
HIV-infected H9 cells; H9 cells treated with 20 mM
  Syncytia (/HPF): 0 /HPF
HIV-infected H9 cells; MT2 cells treated with 20 mM
  Syncytia (/HPF): 0 /HPF
HIV-infected H9 cells; PM1 cells treated with 20 mM
  Syncytia (/HPF): 0 /HPF
HIV-infected H9 cells; SupT1, H9, PM1 and MT2 cell lines, in each case
  Syncytium formation with HIV-1-infected cells: completely blocked
HIV-infected H9 cells; SupT1 cells treated with 20 mM
  Syncytia (/HPF): 0 /HPF
HIV-infected H9 cells; treated SupT1 cells with HIV-1MN-infected H9 cells
  Time without apparent syncytia: more than 15 hr
CCR5
  CCR5 expression, cells staining positive: 8%
[1]; infected Jurkat cells after treatment
  Overall cellular release of p24: increased
[1]; infected Jurkat cells treated with 20 mM for 1 hr at 37° C
  CD45 capture of HIV-1: remained mostly unaffected
[1]; [2]
  Capture of HIV-1 by MAb against CD59, percentage of total p24: decreased substantially
  Capture of HIV-1 by MAb against gp41, percentage of total p24: decreased substantially
[1]; infected Jurkat cells treated with 20 mM for 1 hr at 37° C, P=0.08
  Decrease in capture of HIV-1 through Thy-1: not statistically significant
